Consider 2 compounds from paper PMC9238327, “RG100204, A Novel Aquaporin-9 Inhibitor, Reduces Septic Cardiomyopathy and Multiple Organ Failure in Murine Sepsis” (Frontiers in Immunology, 2022).

SMILES strings stand for the structures.

Assay [1] deals with T1, Aquaporin 9 (AQP9) (Mus musculus, UniProt Q9JJJ3).
T1 sequence (Q9JJJ3 1-295): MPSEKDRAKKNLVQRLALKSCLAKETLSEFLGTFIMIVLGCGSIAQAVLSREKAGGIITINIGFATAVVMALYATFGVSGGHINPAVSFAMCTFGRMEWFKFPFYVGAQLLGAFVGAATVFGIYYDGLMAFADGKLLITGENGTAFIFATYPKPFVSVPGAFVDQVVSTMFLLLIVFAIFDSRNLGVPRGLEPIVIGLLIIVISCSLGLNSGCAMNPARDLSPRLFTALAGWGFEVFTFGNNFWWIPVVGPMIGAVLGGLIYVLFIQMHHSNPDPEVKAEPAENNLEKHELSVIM
As to the kind of experiment: glycerol, water and H2O2 permeability in CHO cells expressing mouse AQP9 (calcein / HyPer-3 fluorescence). The class given is cell-based.

The target in assay [2] is T1, Aquaporin 9 (AQP9). As to the kind of experiment: water and glycerol permeability in CHO cells expressing mouse AQP9 (calcein fluorescence). In kind it is cell-based.

As to `CCn1c(SCC(=O)Nc2nnc(-c3ccc(OC(C)C)cc3)s2)nnc1C(C)C` [RG, RG100204], the IC50 (commonly the concentration needed to halve the response being measured) in assay [1] is around 0.076 µM. As for `O=C(CCc1ccc(O)cc1)c1c(O)cc(O)cc1O` [Phlor, phloretin], the IC50 in assay [2] is around 0.72 µM.
